Assay results taken from ChEMBL document CHEMBL5505949, “Synthesis and clinical application of small-molecule inhibitors of Janus kinase” (Eur J Med Chem, 2023).

Legend:
[1] = biological target: T1, Tyrosine-protein kinase JAK2 (Homo sapiens, UniProt O60674); test: Inhibition of wild type JAK2 (unknown origin)
[2] = biological target: Tyrosine-protein kinase JAK2 (Homo sapiens, UniProt O60674, V617F); test: Inhibition of JAK2 V617F mutant (unknown origin)
[3] = biological target: T1, Tyrosine-protein kinase JAK2; test: Inhibition of JAK2 (unknown origin)
[4] = biological target: T2, Tyrosine-protein kinase JAK3 (Homo sapiens, UniProt P52333); test: Inhibition of JAK3 (unknown origin)
T2 sequence (P52333 whole entry): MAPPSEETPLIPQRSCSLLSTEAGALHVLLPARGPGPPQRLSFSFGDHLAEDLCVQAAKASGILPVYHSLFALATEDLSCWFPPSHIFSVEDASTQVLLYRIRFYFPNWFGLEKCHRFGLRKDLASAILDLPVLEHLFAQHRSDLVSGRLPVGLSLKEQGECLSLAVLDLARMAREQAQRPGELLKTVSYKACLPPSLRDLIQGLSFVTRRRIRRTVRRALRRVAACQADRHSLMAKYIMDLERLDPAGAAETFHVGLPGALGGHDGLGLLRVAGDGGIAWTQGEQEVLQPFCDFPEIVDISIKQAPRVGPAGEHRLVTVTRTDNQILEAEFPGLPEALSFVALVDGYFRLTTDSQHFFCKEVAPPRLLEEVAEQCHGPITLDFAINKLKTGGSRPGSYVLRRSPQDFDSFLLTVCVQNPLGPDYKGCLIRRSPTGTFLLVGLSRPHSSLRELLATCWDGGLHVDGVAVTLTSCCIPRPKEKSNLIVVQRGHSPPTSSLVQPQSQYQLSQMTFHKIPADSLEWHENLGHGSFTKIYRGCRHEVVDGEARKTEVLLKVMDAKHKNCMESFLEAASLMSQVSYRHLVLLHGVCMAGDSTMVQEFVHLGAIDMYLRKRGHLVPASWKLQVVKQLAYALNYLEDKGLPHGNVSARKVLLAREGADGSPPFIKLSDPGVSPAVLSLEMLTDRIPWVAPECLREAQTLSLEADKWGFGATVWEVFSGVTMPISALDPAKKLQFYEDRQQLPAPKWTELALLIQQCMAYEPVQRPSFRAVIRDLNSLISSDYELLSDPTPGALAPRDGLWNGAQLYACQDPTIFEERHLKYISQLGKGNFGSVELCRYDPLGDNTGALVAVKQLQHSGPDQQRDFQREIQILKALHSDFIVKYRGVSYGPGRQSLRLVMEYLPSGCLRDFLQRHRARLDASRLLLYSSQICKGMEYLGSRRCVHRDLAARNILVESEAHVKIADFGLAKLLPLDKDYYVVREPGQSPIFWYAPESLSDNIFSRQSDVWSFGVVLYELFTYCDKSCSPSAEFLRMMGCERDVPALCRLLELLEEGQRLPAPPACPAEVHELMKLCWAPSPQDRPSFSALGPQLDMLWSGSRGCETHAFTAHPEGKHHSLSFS

T1 sequence (O60674 whole entry): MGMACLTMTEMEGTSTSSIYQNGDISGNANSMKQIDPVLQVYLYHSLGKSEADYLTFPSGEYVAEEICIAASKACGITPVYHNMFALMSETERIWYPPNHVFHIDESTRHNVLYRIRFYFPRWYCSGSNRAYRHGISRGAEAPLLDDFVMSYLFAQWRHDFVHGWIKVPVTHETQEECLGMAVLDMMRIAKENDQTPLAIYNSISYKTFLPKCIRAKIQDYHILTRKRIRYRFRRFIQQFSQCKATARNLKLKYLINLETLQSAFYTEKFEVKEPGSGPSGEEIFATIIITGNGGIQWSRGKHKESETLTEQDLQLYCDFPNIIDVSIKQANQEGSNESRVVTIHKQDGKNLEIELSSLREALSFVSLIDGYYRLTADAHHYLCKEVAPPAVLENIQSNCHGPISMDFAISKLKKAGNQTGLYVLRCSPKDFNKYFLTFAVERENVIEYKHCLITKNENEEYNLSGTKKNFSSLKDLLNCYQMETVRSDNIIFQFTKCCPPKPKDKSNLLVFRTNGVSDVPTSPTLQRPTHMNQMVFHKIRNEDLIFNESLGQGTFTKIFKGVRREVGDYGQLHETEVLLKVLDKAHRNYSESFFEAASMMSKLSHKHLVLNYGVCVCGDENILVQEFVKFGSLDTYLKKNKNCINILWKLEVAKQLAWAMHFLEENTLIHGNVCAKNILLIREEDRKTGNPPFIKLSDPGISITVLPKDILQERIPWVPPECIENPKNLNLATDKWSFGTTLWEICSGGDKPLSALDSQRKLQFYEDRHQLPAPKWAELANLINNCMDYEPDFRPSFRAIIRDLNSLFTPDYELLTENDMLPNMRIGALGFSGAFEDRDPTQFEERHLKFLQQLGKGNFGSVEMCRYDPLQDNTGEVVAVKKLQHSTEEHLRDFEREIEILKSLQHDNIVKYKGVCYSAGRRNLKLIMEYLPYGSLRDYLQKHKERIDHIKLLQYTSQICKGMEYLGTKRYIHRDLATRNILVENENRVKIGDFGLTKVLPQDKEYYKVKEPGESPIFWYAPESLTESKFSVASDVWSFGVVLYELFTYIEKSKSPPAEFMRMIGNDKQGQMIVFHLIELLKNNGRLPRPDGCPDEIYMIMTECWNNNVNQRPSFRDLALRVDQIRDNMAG
Sequence of Tyrosine-protein kinase JAK2 (Homo sapiens, UniProt O60674, V617F) (O60674 whole entry V617F): as the sequence (O60674 whole entry) above, with V617F counted along it

| IC50 [4] | SMILES | IC50 [1] | IC50 [2] | IC50 [3] |
| --- | --- | --- | --- | --- |
| – | Cc1cc(Nc2cc(CN3CCOCC3)c3nc(C)c(Cc4ccc(Cl)cc4F)n3n2)n[nH]1 [GANDOTINIB] | 2260 nM | 55 nM | 0.068 µM |
| 30 µM | COc1nn(C)cc1Nc1nccc(-c2c[nH]c3c(NC(=O)[C@@H](C)N4CCN(C)CC4)cccc23)n1 [GOLIDOCITINIB] | – | – | 14.7 µM |
